Test results: US7776873B2, “Method for treating damage to gastric mucosa” (Yuhan Corporation, priority 2005, dated 2010)

Experiments:
[1] = system: indomethacin-induced gastric mucosal lesions; experiment: Preventive effect on NSAID-induced gastropathy; type: in vivo, Sprague Dawley male rats; details: rats, oro-gastric pretreatment (revaprazan 5, 10 mg/kg; rebamipide 30 mg/kg; omeprazole 5 mg/kg) prior to indomethacin 40 mg/kg for 12 hrs, FIG. 8
Protocol: Six-week old specific-pathogen-free (SPF) Sprague Dawley male rats (Charles River, Tokyo, Japan) were used for experiments. The rats were fed a sterilized commercial pellet diet (Biogenomics Co., Seoul, Korea), given sterile water ad libitum, and housed in air-conditioned biohazard room with a 12-h light:12-h dark cycle. The rats were food-deprived 24 hours, and then administered with 5, 10 mg/kg revaprazan, 30 mg/kg rebamipide and 5 mg/kg omeprazole suspended in 0.5% CMC (carboxymethylcellulose) via oro-gastric tube prior to exposure to indomethacin (40 mg/kg for 12 hrs). Phosphate-buffered saline was perfused into the gastric lumen of the rats to swell the stomachs. Then, the stomachs were opened by an incision along the greater curvature, and the total area of the gastric mucosal lesions was calculated to obtain the average size of the lesions.

[2] = system: rat gastric mucosal (RGM-1) cells; experiment: Incidence of ethanol-induced cell death (MTT assay-2); type: cell-based; details: 50 uM pretreatment for 16 hours, then 200 mM ethanol for 16 hours, FIG. 2
Protocol: The rat gastric mucosal (RGM-1, RIKEN cell bank, Japan) cells were seeded onto 96-well plate at 5×10^4 cells/ml and cultured in DMEM-F12 (Gibco BRL, Grand Island, N.Y., U.S.A.), supplemented with 100 units/mL penicillin, 100 ug/mL streptomycin, and 10% FBS (Fetal Bovine Serum). […] To remove DMEM-F12 media, the plate was centrifuged at 24° C., 3000 rpm for 5 minutes and washed three times with PBS (137 mM NaCl, 2.7 mM KCl, 10 mM Na2HPO4, and 2 mM KH2PO4). Then, ethanol-containing media (200 mM ethanol-containing DMEM-F12, supplemented with 100 units/mL penicillin, 100 ug/mL streptomycin, and 10% FBS) was added to the cells, and the cells were cultured at 37° C. for 16 hours. After the incubation, the culture was centrifuged at 24° C., 3000 rpm for 5 minutes to remove the culture medium and then total viable cell numbers were assessed by MTT (3-[4,5-dimethylthiazol-2-yl]-2,5-diphenyl tetrazolim bromide) assay method. 1 mg/ml of an MTT solution prepared by dissolving MTT (Amresco, Ohio, U.S.A.) in PBS (137 mM NaCl, 2.7 mM KCl, 10 mM Na2HPO4, and 2 mM KH2PO4) was added to each well (50 μl/well), followed by incubation at 37° C. for 4 hours. The supernatant was then removed by centrifugation at 24° C., 3000 rpm for 5 minutes and the formazan grains formed by the viable cells were dissolved in 99.5% dimethylsulfoxide (DMSO) (Kanto, Tokyo, Japan) (50 μl/well), and the optical intensity was measured at 540 nm using an ELISA reader (TECAN, Maennedorf, Switzerland).

[3] = system: human gastric epithelial (AGS) cells infected with H. pylori (ATCC 43504); experiment: Incidence of H. pylori-induced cell death (MTT assay-1); type: cell-based; details: 50 uM pretreatment for 16 hours, then 48-hour H. pylori infection, FIG. 1
Protocol: In order to determine cytoprotective properties of revaprazan against H. pylori infection, gastric mucosal cells were pretreated with revaprazan and rebamipide prior to H. pylori infection, and the incidence of cell death was measured. Rebamipide, known to have cytoprotective properties, was used as a control drug.
The human gastric epithelial (AGS, KCLB 21739) cells were seeded onto 96-well plate at 5×10^4 cells/ml and cultured in RPMI 1640 (Gibco BRL, Grand Island, N.Y., U.S.A.), supplemented with 100 units/mL penicillin, 100 ug/mL streptomycin, and 10% FBS (Fetal Bovine Serum). Revaprazan and rebamipide, dissolved in sterilized water, were added to AGS cells to reach a final concentration of 50 uM and the cells were incubated at 37° C. for 16 hours. To remove RPMI 1640 media, the plate was centrifuged at 24° C., 3000 rpm for 5 minutes and washed three times with PBS (137 mM NaCl, 2.7 mM KCl, 10 mM Na2HPO4, and 2 mM KH2PO4). For inoculation, H. pylori (ATCC 43504) cultures were resuspended in PBS and cocultured with AGS cells at a final concentration of 5×10^8 CFU/ml. After 48 hours of incubation at 37° C., the culture was centrifuged at 24° C., 3000 rpm for 5 minutes to remove the culture medium, i.e., RPMI 1640, and then total viable cell numbers were assessed by MTT (3-[4,5-dimethylthiazol-2-yl]-2,5-diphenyl tetrazolim bromide) assay method. 1 mg/ml of an MTT solution prepared by dissolving MTT (Amresco, Ohio, U.S.A.) in PBS (137 mM NaCl, 2.7 mM KCl, 10 mM Na2HPO4, and 2 mM KH2PO4) was added to each well (50 μl/well), followed by incubation at 37° C. for 4 hours. The supernatant was then removed by centrifugation at 24° C., 3000 rpm for 5 minutes and the formazan grains formed by the viable cells were dissolved in 99.5% dimethyl sulfoxide (DMSO) (Kanto, Tokyo, Japan) (50 μl/well), and the optical intensity was measured at 540 nm using an ELISA reader (TECAN, Maennedorf, Switzerland).

## O=C(NC(Cc1cc(=O)[nH]c2ccccc12)C(=O)O)c1ccc(Cl)cc1 (stereo not drawn) [rebamipide, reference compound]
[1]
  hemorrhagic gastric mucosal lesions after pretreatment: hemorrhagic lesions are observed
[2]
  ethanol-induced gastric mucosal cytotoxicity: significantly reduced
[3]
  gastric mucosal cytotoxicity by H. pylori infection: significantly reduced
